Measured values from patent US11571458B2, “Bacteriocins to improve vaginal colonization of hydrogen peroxide producing lactobacillus for female reproductive health” (Osel, Inc., priority 2018, dated 2023).

What was measured:
[1] = tested on: Lactobacillus iners; assay: critical dilution assay (bacteriocin activity / MIC); type: cell-based; settings: for L. iners HM-702 MIC: ratio of peptides about 1:1 (w/w); for L. iners HM-702 MIC / MIC against L. iners: L. iners HM-702; for MIC against L. iners: molar value given in brackets; for anti-L. iners activity of purified chromatography fraction: reverse phase fractions identified by MALDI-TOF
[2] = tested on: Lactobacillus sakei subsp. sakei ATCC 15521; assay: as above; type: cell-based; settings: ratio of peptides about 1:1 (w/w)
[3] = tested on: G. vaginalis HM-133; assay: combined use of K7 bacteriocins and metronidazole, OD 600 nm; type: cell-based, Gardnerella vaginalis; settings: 48 hours; K7 bacteriocin 80 BU/mL, metronidazole 42 μg/mL
Protocol: (§1) The effectiveness of the combined use of the K7 bacteriocins and metronidazole was tested against L. iners and G. vaginalis in vitro. Cultures of L. iners HM-702 and G. vaginalis HM-133, L. iners+G. vaginalis co-cultures, and L. crispatus SJ-3C were obtained as described previously in Example 1. Overnight cultures of L. iners, G. vaginalis, and L. crispatus were diluted in fresh growth media to concentrations of approximately 10^5 CFU/mL to be tested against K7 bacteriocin (from Example 1), metronidazole (Sigma-Aldrich, USA), and K7 bacteriocin+metronidazole (combined). To each culture of L. iners, G. vaginalis, the L. iners+G. vaginalis co-culture, and L. crispatus was added semi-purified K7 bacteriocin (80 BU/mL, quantified using L. iners as indicator), metronidazole (42 μg/mL), or the K7 bacteriocin+metronidazole combination, and incubated anaerobically at 37° C. for 48 hours. As controls, L. iners, G. vaginalis, the L. iners+G. vaginalis, and L. crispatus were incubated alone with conditioned media for 48 hours as well.

[4] = tested on: L. iners HM-702; assay: as above; type: cell-based, Lactobacillus iners; settings: 48 hours; K7 bacteriocin 80 BU/mL, metronidazole 42 μg/mL
Protocol: as §1

[5] = tested on: L. crispatus SJ-3C; assay: as above; type: cell-based, Lactobacillus crispatus; settings: 48 hours; K7 bacteriocin 80 BU/mL, metronidazole 42 μg/mL
Protocol: as §1

| Molecule | L. iners HM-702 MIC ([1]; critical dilution assay) | MIC against L. iners [1] | activity of peptide expressed as MBP fusion in E. coli ([1]; critical dilution assay, data not shown) | anti-L. iners activity of purified chromatography fraction [1] | L. sakei subsp. sakei ATCC 15521 MIC [2] | sensitivity of G. vaginalis (OD 600 nm) [3] | sensitivity of L. iners (OD 600 nm) [4] | inhibition of L. crispatus SJ-3C (OD 600 nm) [5] |
| --- | --- | --- | --- | --- | --- | --- | --- | --- |
| RNNWAANIGGAGGATVAGWALGNAVCGPACGFVGAHYVPIAWAGVTAATGGFGKIRK (listed as Lactobacillus paragasseri) [GasK7B α, α peptide of two-component bacteriocin gassericin K7B from L. paragasseri K7] | 0.025 µg/mL | 5 nM | comparable to the peptide isolated from K7 | greatest anti-L. iners activity | 0.0016 µg/mL |  |  |  |
| Cc1ncc([N+](=O)[O-])n1CCO [metronidazole] |  |  |  |  |  | sensitive | not sensitive | not significantly inhibited |
| NKWGNAVIGAATGATRGVSWCRGFGPWGMTACGLGGAAIGGYLGYKSN (listed as Lactobacillus paragasseri) [GasK7B β, β peptide of two-component bacteriocin gassericin K7B from L. paragasseri K7] | >0.1 µg/mL |  |  | minor peak of activity | 0.025 µg/mL |  |  |  |
| NNVNWGSVAGSCGKGAVMEIYFGNPILGCANGAATSLVLQTASGIYKNYQKKR (listed as Lactobacillus paragasseri) [GasK7A β, β peptide of two-component bacteriocin gassericin K7A] | >4 µg/mL |  |  |  | >4 µg/mL |  |  |  |
| KNWSVAKCGGTIGTNIAIGAWRGARAGSFFGQPVSVGTGALIGASAGAIGGSVQCVGWLAGGGR (protein, listed as Lactobacillus paragasseri, α peptide of two-component bacteriocin gassericin K7A from L. paragasseri K7) KNWSVAKCGGTIGTNIAIGAWRGARAGSFFGQPVSVGTGALIGASAGAIGGSVQCVGWLAGGGR | 0.075 µg/mL | 12 nM |  |  | 0.0094 µg/mL |  |  |  |
